# Test results taken from patent publication US20140161720A1, “TREATMENT OF ANGIOGENIC- OR VASCULAR-ASSOCIATED DISEASES” (THE GENERAL HOSPITAL CORPORATION, priority 2011, published 2014).
# Assays:
# [1] = tested on: orthotopic 4T1 mammary tumors; experiment: Tumor growth delay study, 4T1; type: in vivo, female SCID mice; details: 4T1 tumors, start ~200 mm^3, 37.5 mg/kg daily i.p.
# Method: To assess the anti-tumor effects of DAL, female SCID mice bearing orthotopic 4T1 or E0771 mammary tumors were treated with daily i.p. injections of 37.5 mg/kg DAL or saline. In order to calculate tumor volumes, the major and minor axis diameters were measured with calipers and the tumor volume was calculated by assuming a spherical shape based on the average of these two dimensions. The tumors were implanted in the mammary fat pad and allowed to grow to a starting size (small ˜100 mm^3 tumors for E0771, large ˜200 mm^3 tumors for 4T1) over ˜2 weeks. To ensure that tumors in the two groups were of similar growth rates, the treatment with saline or DAL was begun in pairs of tumors with similar sizes and growth times. Tumor volumes were measured every other day until the tumors reached an average of ˜10 mm in diameter. Tumor growth was quantified with the doubling rate, and calculated by fitting an exponential growth curve to the data for tumor size versus time.
# As shown in Example 3, DAL has an antivascular effect in orthotopic mammary tumors in mice. Thus, the antitumor effect of DAL was next assessed. […] The effect of DAL on the growth of orthotopic 4T1 and E0771 mammary tumors with daily treatment of DAL or saline was evaluated (FIG. 4A). 37.5 mg/kg of DAL was used for these experiments based on the pharmacokinetics results as well as in vitro and in vivo data. […]
# AKT1 = AKT1 (Homo sapiens, UniProt P31749); experiment: Kinase inhibition screening; type: biochemical; details: 10-dose, starting at 100 μM, 1 μM ATP
# Method: (§1) To determine kinase activity of DAL, various kinases (AKT1, AKT2, AKT3, PKA, PKC alpha, PKC delta, PAK1, EPHB2, EPHB4, p38 alpha, PI3K-alpha, PI3K-beta, PI3K-gamma, PI3K-delta) were screened in a 10-dose IC50 mode with threefold serial dilutions starting at 100 μM. Staurosporine was used as a control starting at 10 μM and the reactions were carried out at 1 μM ATP.
# (§2) Without wishing to be bound by theory, DAL brings about its antivascular effects by destabilizing cell adhesion through the actin cytoskeleton. It was next sought to identify which specific adhesion pathway it targets. Mechanical attachment at cell-cell adherens and tight junctions is regulated by dynamic changes in the actin cytoskeleton. Adherens junctions are composed of E-cadherin/β-catenin complexes and are connected to the actin cytoskeleton via sa-catenin (25-26), while tight junctions consist of transmembrane claudins and occludin and are associated with the actin cytoskeleton via ZO proteins (27-28). Therefore, potential targets of DAL in signaling pathways involved in actin remodeling were evaluated. […] Then, it was sought to determine whether Rho-GTPase family members are targets for DAL due to the disruption of cell adhesion and actin network remodeling along with inhibited motility. Rho-GTPases (e.g., Rac1) plays an important role in actin cytoskeletal organization and is involved in the coordination of cell adhesion (29). Furthermore, Rac1 is responsible for stabilizing endothelial cell junctions by opposing actin remodeling by Rho (30). In order to migrate, cancer cells employ dynamic remodeling of the actin cytoskeleton, form protrusive structures and generate forces necessary to produce cell translocation in the process regulated by Rho-GTPase Rac1. To assess whether DAL can modulate Rac1, RhoA, and Cdc42 activities, affinity purification assays were employed to monitor RhoA and Cdc42/Rac1 activity. The Rho-Binding Domain (RBD) of the Rho effector protein rhotekin and the p21 Binding Domain (PBD) of the Cdc42/Rac effector protein p21 activated kinase 1 (PAK) were applied to pull down active forms of each protein.
# AKT2 = AKT2 (Homo sapiens, UniProt P31751); experiment: Kinase inhibition screening; type: biochemical; details: 10-dose, starting at 100 μM, 1 μM ATP
# Method: as §1, §2
# AKT3 = AKT3 (Homo sapiens, UniProt Q9Y243); experiment: Kinase inhibition screening; type: biochemical; details: 10-dose, starting at 100 μM, 1 μM ATP
# Chain of AKT3 (Q9Y243 whole entry, species assumed): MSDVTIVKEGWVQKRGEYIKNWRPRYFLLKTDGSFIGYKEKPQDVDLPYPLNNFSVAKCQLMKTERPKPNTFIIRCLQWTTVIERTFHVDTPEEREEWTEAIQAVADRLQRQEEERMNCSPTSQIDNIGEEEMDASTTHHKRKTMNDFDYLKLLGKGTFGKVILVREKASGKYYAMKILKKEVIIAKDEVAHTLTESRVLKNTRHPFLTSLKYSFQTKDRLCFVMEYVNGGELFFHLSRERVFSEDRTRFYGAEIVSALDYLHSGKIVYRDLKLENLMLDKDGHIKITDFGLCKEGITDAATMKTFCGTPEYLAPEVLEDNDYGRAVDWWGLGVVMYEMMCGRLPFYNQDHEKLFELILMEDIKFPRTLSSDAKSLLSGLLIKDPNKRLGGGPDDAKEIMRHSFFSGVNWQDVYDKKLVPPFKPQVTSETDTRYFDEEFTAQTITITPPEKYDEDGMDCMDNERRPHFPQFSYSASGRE
# Method: as §1, §2
# EPHB2 = EPHB2 (Homo sapiens, UniProt P29323); experiment: Kinase inhibition screening; type: biochemical; details: 10-dose, starting at 100 μM, 1 μM ATP
# Chain of EPHB2 (P29323 19-1055, species assumed): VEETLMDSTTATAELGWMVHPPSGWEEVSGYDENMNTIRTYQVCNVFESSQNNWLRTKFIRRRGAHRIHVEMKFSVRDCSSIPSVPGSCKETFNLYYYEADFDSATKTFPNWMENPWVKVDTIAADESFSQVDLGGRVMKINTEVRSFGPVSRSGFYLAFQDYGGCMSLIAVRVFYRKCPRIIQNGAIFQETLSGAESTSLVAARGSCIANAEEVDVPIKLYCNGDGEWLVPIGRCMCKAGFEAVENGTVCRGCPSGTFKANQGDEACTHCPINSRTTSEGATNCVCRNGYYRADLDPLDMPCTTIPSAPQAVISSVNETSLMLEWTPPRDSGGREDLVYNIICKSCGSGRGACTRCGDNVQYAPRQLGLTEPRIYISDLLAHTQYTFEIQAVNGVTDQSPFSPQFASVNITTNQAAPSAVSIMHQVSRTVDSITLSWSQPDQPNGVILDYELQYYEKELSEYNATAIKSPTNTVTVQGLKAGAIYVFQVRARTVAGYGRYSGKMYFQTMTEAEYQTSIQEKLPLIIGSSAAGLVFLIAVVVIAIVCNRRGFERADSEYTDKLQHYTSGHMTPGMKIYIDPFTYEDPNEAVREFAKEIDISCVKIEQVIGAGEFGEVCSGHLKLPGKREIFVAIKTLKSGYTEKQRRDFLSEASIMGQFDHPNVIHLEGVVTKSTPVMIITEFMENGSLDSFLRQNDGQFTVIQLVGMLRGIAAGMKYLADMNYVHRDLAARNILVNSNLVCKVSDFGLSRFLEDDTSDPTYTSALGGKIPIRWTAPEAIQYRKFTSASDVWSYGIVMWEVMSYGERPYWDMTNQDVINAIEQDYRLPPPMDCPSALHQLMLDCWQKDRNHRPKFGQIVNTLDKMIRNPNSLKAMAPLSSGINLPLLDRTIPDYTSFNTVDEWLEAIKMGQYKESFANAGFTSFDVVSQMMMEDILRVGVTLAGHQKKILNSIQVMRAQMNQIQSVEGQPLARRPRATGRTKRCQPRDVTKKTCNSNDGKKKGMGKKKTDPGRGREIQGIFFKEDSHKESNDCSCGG
# Method: as §1, §2
# EPHB4 = EPHB4 (Homo sapiens, UniProt P54760); experiment: Kinase inhibition screening; type: biochemical; details: 10-dose, starting at 100 μM, 1 μM ATP
# Method: as §1, §2
# PAK1 = PAK1 (Homo sapiens, UniProt Q13153); experiment: Kinase inhibition screening; type: biochemical; details: 10-dose, starting at 100 μM, 1 μM ATP
# Method: as §1, §2
# PI3K-alpha = PI3K-alpha (Homo sapiens, UniProt P42336); experiment: Kinase inhibition screening; type: biochemical; details: 10-dose, starting at 100 μM, 1 μM ATP
# Chain of PI3K-alpha (P42336 whole entry, species assumed): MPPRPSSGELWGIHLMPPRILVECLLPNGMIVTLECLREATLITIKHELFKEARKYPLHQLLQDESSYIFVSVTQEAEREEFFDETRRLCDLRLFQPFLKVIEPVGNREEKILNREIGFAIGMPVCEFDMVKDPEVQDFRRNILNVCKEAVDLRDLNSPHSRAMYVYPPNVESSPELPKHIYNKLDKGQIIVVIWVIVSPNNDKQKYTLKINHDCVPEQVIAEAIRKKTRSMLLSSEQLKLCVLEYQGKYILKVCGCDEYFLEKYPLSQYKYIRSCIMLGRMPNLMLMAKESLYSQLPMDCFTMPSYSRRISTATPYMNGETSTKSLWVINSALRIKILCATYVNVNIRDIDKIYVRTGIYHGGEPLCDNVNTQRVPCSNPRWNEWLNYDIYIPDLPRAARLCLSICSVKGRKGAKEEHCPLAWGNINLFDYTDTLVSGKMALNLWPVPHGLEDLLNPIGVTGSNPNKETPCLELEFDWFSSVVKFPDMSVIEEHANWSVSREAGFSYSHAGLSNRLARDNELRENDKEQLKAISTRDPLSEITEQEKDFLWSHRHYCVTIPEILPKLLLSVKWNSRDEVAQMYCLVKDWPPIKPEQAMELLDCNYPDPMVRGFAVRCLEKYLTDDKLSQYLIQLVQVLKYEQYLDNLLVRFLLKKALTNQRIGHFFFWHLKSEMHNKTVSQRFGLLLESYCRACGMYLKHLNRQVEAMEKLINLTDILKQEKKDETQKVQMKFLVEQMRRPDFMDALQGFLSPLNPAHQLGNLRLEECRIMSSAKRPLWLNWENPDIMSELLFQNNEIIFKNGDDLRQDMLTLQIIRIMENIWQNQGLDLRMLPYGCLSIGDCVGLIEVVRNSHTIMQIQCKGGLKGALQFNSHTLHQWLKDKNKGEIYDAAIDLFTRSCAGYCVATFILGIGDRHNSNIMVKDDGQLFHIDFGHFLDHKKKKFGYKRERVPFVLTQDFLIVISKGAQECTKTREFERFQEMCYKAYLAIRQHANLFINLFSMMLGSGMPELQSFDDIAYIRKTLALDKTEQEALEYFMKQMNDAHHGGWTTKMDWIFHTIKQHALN
# Chain of PI3K-alpha (P27986 whole entry partner, species assumed): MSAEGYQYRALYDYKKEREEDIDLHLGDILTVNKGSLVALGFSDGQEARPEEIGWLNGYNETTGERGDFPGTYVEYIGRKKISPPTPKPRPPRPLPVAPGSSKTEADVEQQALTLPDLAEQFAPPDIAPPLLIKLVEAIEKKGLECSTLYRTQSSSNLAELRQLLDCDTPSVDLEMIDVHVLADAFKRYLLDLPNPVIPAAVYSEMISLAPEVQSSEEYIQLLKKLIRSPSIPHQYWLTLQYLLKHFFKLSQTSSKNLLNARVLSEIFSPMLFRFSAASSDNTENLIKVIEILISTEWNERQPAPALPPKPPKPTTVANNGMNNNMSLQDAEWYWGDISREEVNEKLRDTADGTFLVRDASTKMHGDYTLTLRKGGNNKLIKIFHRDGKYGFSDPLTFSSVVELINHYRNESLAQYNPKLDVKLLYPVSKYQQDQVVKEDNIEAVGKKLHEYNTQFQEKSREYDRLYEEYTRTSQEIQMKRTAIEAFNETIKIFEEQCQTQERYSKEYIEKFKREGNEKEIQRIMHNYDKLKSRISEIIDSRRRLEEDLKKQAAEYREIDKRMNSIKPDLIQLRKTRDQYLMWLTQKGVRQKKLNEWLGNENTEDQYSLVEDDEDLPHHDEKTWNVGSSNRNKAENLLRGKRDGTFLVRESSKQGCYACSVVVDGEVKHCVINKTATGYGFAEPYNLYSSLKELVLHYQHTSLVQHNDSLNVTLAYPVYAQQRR
# Method: as §1, §2
# PI3K-beta = PI3K-beta (Homo sapiens, UniProt P42338); experiment: Kinase inhibition screening; type: biochemical; details: 10-dose, starting at 100 μM, 1 μM ATP
# Method: as §1, §2
# PI3K-delta = PI3K-delta (Homo sapiens, UniProt O00329); experiment: Kinase inhibition screening; type: biochemical; details: 10-dose, starting at 100 μM, 1 μM ATP
# Chain of PI3K-delta (O00329 whole entry, species assumed): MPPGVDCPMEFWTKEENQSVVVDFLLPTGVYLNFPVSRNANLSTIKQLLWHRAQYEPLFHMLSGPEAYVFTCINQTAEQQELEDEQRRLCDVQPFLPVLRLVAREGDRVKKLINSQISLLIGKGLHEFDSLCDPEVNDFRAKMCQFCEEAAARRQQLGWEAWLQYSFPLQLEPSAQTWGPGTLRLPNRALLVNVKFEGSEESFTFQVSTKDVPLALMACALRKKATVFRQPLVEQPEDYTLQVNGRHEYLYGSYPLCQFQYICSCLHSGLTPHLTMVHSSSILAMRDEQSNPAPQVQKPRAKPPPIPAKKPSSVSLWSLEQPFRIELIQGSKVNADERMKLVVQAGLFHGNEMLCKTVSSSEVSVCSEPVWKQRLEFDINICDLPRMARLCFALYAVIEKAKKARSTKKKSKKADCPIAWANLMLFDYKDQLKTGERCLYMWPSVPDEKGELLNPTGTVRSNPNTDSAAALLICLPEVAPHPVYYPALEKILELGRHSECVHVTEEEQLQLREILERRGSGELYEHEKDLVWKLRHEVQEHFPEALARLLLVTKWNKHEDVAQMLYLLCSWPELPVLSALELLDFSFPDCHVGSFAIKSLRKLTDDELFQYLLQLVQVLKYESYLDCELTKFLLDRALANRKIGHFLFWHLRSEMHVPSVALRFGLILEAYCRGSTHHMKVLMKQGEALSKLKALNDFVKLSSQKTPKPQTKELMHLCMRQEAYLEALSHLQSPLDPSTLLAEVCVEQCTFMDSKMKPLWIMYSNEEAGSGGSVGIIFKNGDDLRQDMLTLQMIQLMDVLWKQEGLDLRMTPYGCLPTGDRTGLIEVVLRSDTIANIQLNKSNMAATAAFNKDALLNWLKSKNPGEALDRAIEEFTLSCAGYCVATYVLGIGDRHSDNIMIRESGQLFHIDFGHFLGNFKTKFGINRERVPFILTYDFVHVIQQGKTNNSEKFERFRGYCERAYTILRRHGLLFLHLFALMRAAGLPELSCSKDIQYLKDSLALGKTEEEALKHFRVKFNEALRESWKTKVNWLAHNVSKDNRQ
# Chain of PI3K-delta (P27986 whole entry partner, species assumed): as the sequence (P27986 whole entry partner, species assumed) above
# Method: as §1, §2
# PI3K-gamma = PI3K-gamma (Homo sapiens, UniProt P48736); experiment: Kinase inhibition screening; type: biochemical; details: 10-dose, starting at 100 μM, 1 μM ATP
# Method: as §1, §2
# PKA = PKA (Homo sapiens, UniProt P17612); experiment: Kinase inhibition screening; type: biochemical; details: 10-dose, starting at 100 μM, 1 μM ATP
# Method: as §1, §2
# PKC alpha = PKC alpha (Homo sapiens, UniProt P17252); experiment: Kinase inhibition screening; type: biochemical; details: 10-dose, starting at 100 μM, 1 μM ATP
# Method: as §1, §2
# PKC delta = PKC delta (Homo sapiens, UniProt Q05655); experiment: Kinase inhibition screening; type: biochemical; details: 10-dose, starting at 100 μM, 1 μM ATP
# Chain of PKC delta (Q05655 whole entry): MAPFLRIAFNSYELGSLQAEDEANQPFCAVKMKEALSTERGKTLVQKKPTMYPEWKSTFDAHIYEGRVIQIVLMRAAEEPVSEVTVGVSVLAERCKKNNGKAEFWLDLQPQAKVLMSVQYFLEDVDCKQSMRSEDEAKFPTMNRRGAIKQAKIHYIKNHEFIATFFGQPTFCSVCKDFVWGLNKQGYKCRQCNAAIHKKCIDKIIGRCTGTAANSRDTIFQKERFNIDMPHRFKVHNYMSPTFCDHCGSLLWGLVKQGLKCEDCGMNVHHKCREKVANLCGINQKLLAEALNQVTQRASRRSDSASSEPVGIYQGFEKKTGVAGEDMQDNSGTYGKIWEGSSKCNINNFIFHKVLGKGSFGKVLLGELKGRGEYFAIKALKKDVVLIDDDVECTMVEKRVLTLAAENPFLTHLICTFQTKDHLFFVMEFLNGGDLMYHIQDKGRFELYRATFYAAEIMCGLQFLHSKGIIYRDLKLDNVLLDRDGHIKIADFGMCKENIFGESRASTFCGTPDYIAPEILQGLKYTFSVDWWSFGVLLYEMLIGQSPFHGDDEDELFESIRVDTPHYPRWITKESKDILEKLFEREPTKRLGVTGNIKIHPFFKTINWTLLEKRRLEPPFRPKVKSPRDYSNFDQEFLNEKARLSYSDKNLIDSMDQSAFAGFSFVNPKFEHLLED
# Method: as §1, §2
# p38 alpha = p38 alpha (Homo sapiens, UniProt Q16539); experiment: Kinase inhibition screening; type: biochemical; details: 10-dose, starting at 100 μM, 1 μM ATP
# Method: as §1, §2
smiles,measurement,setting,value
"CC1(C)C=CC2=C(O1)C(=O)c1ccccc1C2=O [DAL, dehydro-alpha-lapachone]",tumor volume doubling time,[1],11.21 ± 3.53 days
same,effect on kinase AKT1,AKT1,no significant effects
same,effect on kinase AKT2,AKT2,no significant effects
same,effect on kinase AKT3,AKT3,no significant effects
same,effect on kinase EPHB2,EPHB2,no significant effects
same,effect on kinase EPHB4,EPHB4,no significant effects
same,effect on kinase PAK1,PAK1,no significant effects
same,effect on kinase PI3K-alpha,PI3K-alpha,no significant effects
same,effect on kinase PI3K-beta,PI3K-beta,no significant effects
same,effect on kinase PI3K-delta,PI3K-delta,no significant effects
same,effect on kinase PI3K-gamma,PI3K-gamma,no significant effects
same,effect on kinase PKA,PKA,no significant effects
same,effect on kinase PKC alpha,PKC alpha,no significant effects
same,effect on kinase PKC delta,PKC delta,no significant effects
same,effect on kinase p38 alpha,p38 alpha,no significant effects
